In US6875451B2, “Compositions and methods for the treatment of primary and metastatic neoplastic diseases using arsenic compounds” (PolaRx Biopharmaceuticals Inc., priority 1997, dated 2005):

Columns and labels:
Assay type in all cases: cell-based
MCF7 = test: SRB growth assay, 2 days exposure, breast cancer
Experimental: (§1) Arsenic trioxide (1 mg/ml, 10 mg/ampoule, manufactured by Taylor Pharmaceuticals, Decatur, Ill.) was tested at five concentrations each at 10-fold dilutions, i.e., 10^−5, 10^−6, 10^−7, 10^−8 and 10^−9 μg/ml.
(§2) The in vitro tests were performed by incubating the test cells in the presence of the indicated concentration of arsenic trioxide under standard culture conditions for a designated period of time, which is followed by a sulforhodamine B (SRB) protein assay to estimate cell viability or growth. The cell lines are organized into subpanels according to the origin of the cell lines, e.g., leukemia, breast cancer, etc. A description of the cell lines and method of testing is described in Monk et al. (1997, Anticancer Drug Des. 12:533-41) and Weinstein et al., (1997, Science 275:343-9), which are incorporated herein in their entirety.
(§3) The measurement of an effect is expressed in Percentage Growth (PG). The measured effect of the compound on a cell line is calculated according to one or the other of the following two expressions: If (Mean ODtest−Mean ODzero)≧0. then PG=100×(Mean ODtest−Mean ODzero)/(Mean ODctrl−Mean ODzero) If (Mean ODtest−Mean ODzero)<0. then PG=100×(Mean ODtest−Mean ODzero)/(Mean ODzero where: • Mean ODzero=the average of optical density measurements of SRB-derived color just before exposure of cells to the test compounds; • Mean ODtest=the average of optical density measurements of SRB-derived color after exposure of cells to the test compound for a designated period of time; and • Mean ODctrl=the average of optical density measurements of SRB-derived color after with no exposure of cells to the test compound for a designated period of time
(§4) The first two columns describe the subpanel (e.g., leukemia) and cell line (e.g., CCRF-CEM) involved. The next two columns list the Mean ODzero and Mean ODctrl; the next five columns list the Mean ODtest for each of five different concentrations. Each concentration is expressed as the log10 (molar or μg/ml). The next five columns list the calculated PGs for each concentration. The response parameters GI50, TGI and LC50 are interpolated values representing the concentrations at which the PG is +50, 0, and −50, respectively. Sometimes these response parameters cannot be obtained by interpolation. If, for instance, all of the PGs in a given row exceed +50, then none of the three parameters can be obtained by interpolation. In such a case, the value given for each response parameter is the highest concentration tested and is preceded by a “>” sign. This practice is extended similarly to the other possible situations where a response parameter cannot be obtained by interpolation.
(§5) In the first set, the cells from 56 different cancer cell lines were exposed to five concentrations of arsenic trioxide continuously for two days prior to performing the SRB assay. In the second set, the cells from 50 different cell lines (a subset of the first 56 cell lines, plus the renal cancer cell line 786-0) were exposed continuously for six days prior to the SRB assay.

HS 578T = test: SRB growth assay, 2 days exposure, breast cancer
Experimental: as §1, §2, §3, §4, §5

T-47D = test: SRB growth assay, 2 days exposure, breast cancer
Experimental: as §1, §2, §3, §4, §5

[1] = system: 56 different cancer cell lines; test: NCI cancer cell line panel, SRB assay, first set, 2 days exposure (whole panel, mean graph)
Experimental: as §1, §2, §3
The first two columns describe the subpanel (e.g., leukemia) and cell line (e.g., CCRF-CEM) involved. The next two columns list the Mean ODzero and Mean ODctrl; the next five columns list the Mean ODtest for each of five different concentrations. Each concentration is expressed as the log10 (molar or μg/ml). The next five columns list the calculated PGs for each concentration. […]

EKVX = test: SRB growth assay, 2 days exposure, non-small cell lung cancer
Experimental: as §1, §2, §3, §4, §5

NCI-H23 = test: as above
Experimental: as §1, §2, §3, §4, §5

HOP-62 = test: as above
Experimental: as §1, §2, §3, §4, §5

HOP-92 = test: as above
Experimental: as §1, §2, §3, §4, §5

NCI-H226 = test: as above
Experimental: as §1, §2, §3, §4, §5

NCI-H522 = test: as above
Experimental: as §1, §2, §3, §4, §5

A549/ATCC = test: as above
Experimental: as §1, §2, §3, §4, §5

arsenic trioxide
TGI (MCF7): >0.0126 ng/mL
Percent Growth (MCF7; log10 conc −4.9): 11%
Percent Growth (MCF7; log10 conc −5.9): 95%
Percent Growth (MCF7; log10 conc −6.9): 108%
Percent Growth (MCF7; log10 conc −7.9): 98%
Percent Growth (MCF7; log10 conc −8.9): 99%
TGI (HS 578T): >0.0126 ng/mL
Percent Growth (HS 578T; log10 conc −4.9): 42%
Percent Growth (HS 578T; log10 conc −5.9): 105%
Percent Growth (HS 578T; log10 conc −6.9): 96%
Percent Growth (HS 578T; log10 conc −7.9): 105%
Percent Growth (HS 578T; log10 conc −8.9): 109%
TGI (T-47D): 0.00986 ng/mL
Percent Growth (T-47D; log10 conc −4.9): −10%
Percent Growth (T-47D; log10 conc −5.9): 81%
Percent Growth (T-47D; log10 conc −6.9): 133%
Percent Growth (T-47D; log10 conc −7.9): 109%
Percent Growth (T-47D; log10 conc −8.9): 88%
reducing cell growth ([1]; first set of tests, 2 days exposure, all cell lines tested): effective in reducing cell growth against almost all the cell lines tested
reduction of growth ([1]; leukemic, melanoma and ovarian cancer cell lines, 2 days exposure): more than 50%
sensitivity relative to all the cell lines tested (mean graph, FIG. 2) ([1]; most leukemic and melanoma cell lines, SNB-75, U251, PC-3, A498, CAKI-1, SN12C, NCI-H522, 2 days): especially sensitive
TGI (EKVX): >0.0126 ng/mL
Percent Growth (EKVX; log10 conc −4.9): 11%
Percent Growth (EKVX; log10 conc −5.9): 130%
Percent Growth (EKVX; log10 conc −6.9): 127%
Percent Growth (EKVX; log10 conc −7.9): 129%
Percent Growth (EKVX; log10 conc −8.9): 119%
TGI (NCI-H23): >0.0126 ng/mL
Percent Growth (NCI-H23; log10 conc −4.9): 58%
Percent Growth (NCI-H23; log10 conc −5.9): 101%
Percent Growth (NCI-H23; log10 conc −6.9): 127%
Percent Growth (NCI-H23; log10 conc −7.9): 121%
Percent Growth (NCI-H23; log10 conc −8.9): 115%
TGI (HOP-62): >0.0126 ng/mL
Percent Growth (HOP-62; log10 conc −4.9): 35%
Percent Growth (HOP-62; log10 conc −5.9): 97%
Percent Growth (HOP-62; log10 conc −6.9): 100%
Percent Growth (HOP-62; log10 conc −7.9): 99%
Percent Growth (HOP-62; log10 conc −8.9): 97%
TGI (HOP-92): >0.0126 ng/mL
Percent Growth (HOP-92; log10 conc −4.9): 31%
Percent Growth (HOP-92; log10 conc −5.9): 74%
Percent Growth (HOP-92; log10 conc −6.9): 82%
Percent Growth (HOP-92; log10 conc −7.9): 92%
Percent Growth (HOP-92; log10 conc −8.9): 88%
TGI (NCI-H226): >0.0126 ng/mL
Percent Growth (NCI-H226; log10 conc −4.9): 92%
Percent Growth (NCI-H226; log10 conc −5.9): 109%
Percent Growth (NCI-H226; log10 conc −6.9): 109%
Percent Growth (NCI-H226; log10 conc −7.9): 96%
Percent Growth (NCI-H226; log10 conc −8.9): 109%
TGI (NCI-H522): 0.00708 ng/mL
Percent Growth (NCI-H522; log10 conc −4.9): −21%
Percent Growth (NCI-H522; log10 conc −5.9): 63%
Percent Growth (NCI-H522; log10 conc −6.9): 108%
Percent Growth (NCI-H522; log10 conc −7.9): 100%
Percent Growth (NCI-H522; log10 conc −8.9): 129%
TGI (A549/ATCC): >0.0126 ng/mL
Percent Growth (A549/ATCC; log10 conc −4.9): 69%
Percent Growth (A549/ATCC; log10 conc −5.9): 108%
Percent Growth (A549/ATCC; log10 conc −6.9): 100%
Percent Growth (A549/ATCC; log10 conc −7.9): 102%
Percent Growth (A549/ATCC; log10 conc −8.9): 100%
